Reference: paper PMC4638363, “Linear Interaction Energy Based Prediction of Cytochrome P450 1A2 Binding Affinities with Reliability Estimation” (PLoS ONE, 2015)
Where two headings read alike, the source gives them in different places.

What was measured:
human CYP 1A2 [1] = molecular target: T1, human CYP 1A2 (Homo sapiens, UniProt P05177)
T1 sequence (P05177 1-516): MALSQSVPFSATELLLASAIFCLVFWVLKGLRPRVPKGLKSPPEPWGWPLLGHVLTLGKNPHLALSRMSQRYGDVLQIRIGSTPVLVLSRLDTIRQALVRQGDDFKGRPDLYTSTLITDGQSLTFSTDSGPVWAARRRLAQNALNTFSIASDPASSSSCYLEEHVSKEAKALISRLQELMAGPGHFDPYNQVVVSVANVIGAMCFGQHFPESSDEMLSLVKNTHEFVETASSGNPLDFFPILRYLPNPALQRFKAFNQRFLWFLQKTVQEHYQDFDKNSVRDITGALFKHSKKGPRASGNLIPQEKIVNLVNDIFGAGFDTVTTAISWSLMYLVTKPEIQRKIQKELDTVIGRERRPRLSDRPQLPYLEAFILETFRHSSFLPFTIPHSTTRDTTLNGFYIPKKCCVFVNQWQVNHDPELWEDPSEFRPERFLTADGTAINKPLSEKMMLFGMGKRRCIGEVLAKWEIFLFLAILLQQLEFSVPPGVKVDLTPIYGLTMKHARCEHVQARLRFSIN

recombinant CYP 1A2 [2] = details: cited from earlier work
recombinant CYP 1A2 [3] = tested on: recombinant CYP 1A2
CYP 1A2 = details: Table A, Source 1; ref Bayer HealthCare databases for CYP inhibition (eTOX); cited from earlier work
recombinant CYP 1A2 [4] = details: for ΔGbind^Obs: from literature IC50, Source 3
human CYP 1A2 [5] = molecular target: T1, human CYP 1A2; test: in-house CYP 1A2 inhibition assay with 7-methoxyresorufin as substrate (resorufin fluorescence); details: for ΔΔG bind: difference in ΔG bind between literature and in-house determined values; for ΔG bind (inhouse): from in-house IC50 via Cheng-Prusoff and RTln(Ki)
[6] = Table A, Source 3, ref Korhonen et al., J. Med. Chem. 2005
[7] = read-out: IC 50 (lit), Source 3, recombinant CYP 1A2, 7-ethoxyresorufin O-dealkylation

Cc1ccc(C)c2ccccc12 [Compound 36, 1,4-Dimethylnaphthalene]
Residual (ΔGbind^Obs—ΔGbind^Calc) (human CYP 1A2 [1]; training set): -1.77 kcal/mol | IC50 (recombinant CYP 1A2 [2]; [6]): 3.6 µM | ΔGbind^Obs (recombinant CYP 1A2 [3]; human): -7.89 kcal/mol

Cc1ccc2c(C)cccc2c1 [Compound 40, 1,6-Dimethylnaphthalene]
Residual (ΔGbind^Obs–ΔG bind ^Calc), error in prediction (human CYP 1A2 [1]; test set): -0.454 kcal/mol | IC50 (recombinant CYP 1A2 [2]; [6]): 25 µM | ΔGbind^Obs (recombinant CYP 1A2 [3]; human): -6.74 kcal/mol

Fc1ccc([C@@H]2CCNC[C@H]2COc2ccc3c(c2)OCO3)cc1 [Compound 18, Paroxetine]
IC50 (CYP 1A2): 23.5 µM

CC1CCC(=O)O1 (stereo not drawn) [Compound 51, γ-Valerolactone]
Residual (ΔGbind^Obs—ΔGbind^Calc) (human CYP 1A2 [1]): 0.86 kcal/mol | IC50 (recombinant CYP 1A2 [2]; [6]): 15000 µM | ΔGbind^Obs (recombinant CYP 1A2 [3]): -2.92 kcal/mol

Cc1cc(C)oc(=O)c1 [Compound 72, 4,6-Dimethyl-α-pyron]
Residual (ΔGbind^Obs—ΔGbind^Calc) (human CYP 1A2 [1]): 1.05 kcal/mol | IC50 (recombinant CYP 1A2 [2]): 4500 µM | ΔGbind^Obs (recombinant CYP 1A2 [4]; training set): -3.63 kcal/mol

c1ccc(-c2ccccc2)cc1 [Compound 65, Biphenyl]
Residual (ΔGbind^Obs—ΔGbind^Calc) (human CYP 1A2 [1]): -0.12 kcal/mol | IC50 (recombinant CYP 1A2 [2]): 160 µM | ΔGbind^Obs (recombinant CYP 1A2 [3]; human): -5.62 kcal/mol

Clc1ccccc1C(c1ccccc1)(c1ccccc1)n1ccnc1 [Compound 22, Clotrimazole]
IC50 (CYP 1A2): 5.83 µM

Clc1ccc(-c2ccccc2)cc1 [Compound 67, 4-Chlorobiphenyl]
Residual (ΔGbind^Obs—ΔGbind^Calc) (human CYP 1A2 [1]): 0.024 kcal/mol | IC50 (recombinant CYP 1A2 [2]; [6]): 49 µM | ΔGbind^Obs (recombinant CYP 1A2 [3]; human): -6.33 kcal/mol

Cc1ccc(CCN)cc1 [Compound 12, p-tolylethylamine]
Residual (ΔGbind^Obs–ΔG bind ^Calc), error in prediction (human CYP 1A2 [1]; test set): -1.53 kcal/mol | IC50 (recombinant CYP 1A2 [2]; [7]): 14 ± 2.5 µM | ΔΔG bind (human CYP 1A2 [5]): -1.27 kcal/mol | ΔG bind (inhouse) (human CYP 1A2 [5]): -5.81 ± 0.17 kcal/mol | IC50 (human CYP 1A2 [5]; read-out: IC 50 (inhouse), 7-methoxyresorufin at Km 2.5 μM, triplicate): 120 ± 33 µM | ΔG bind (lit) (recombinant CYP 1A2 [4]; from literature IC50, Source 3 (Ref. 25)): -7.07 ± 0.12 kcal/mol | ΔGbind^Obs (recombinant CYP 1A2 [4]; test set): -7.07 kcal/mol

COc1ccc(C=O)cc1 [Compound 11, p-methoxybenzaldehyde]
Residual (ΔGbind^Obs–ΔG bind ^Calc), error in prediction (human CYP 1A2 [1]): -0.43 kcal/mol | IC50 (recombinant CYP 1A2 [2]; [7]): 270 ± 85 µM | ΔΔG bind (human CYP 1A2 [5]): -0.239 kcal/mol | ΔG bind (inhouse) (human CYP 1A2 [5]): -5.07 ± 0.048 kcal/mol | IC50 (human CYP 1A2 [5]; read-out: IC 50 (inhouse)): 410 ± 32 µM | ΔG bind (lit) (recombinant CYP 1A2 [3]): -5.31 ± 0.19 kcal/mol | ΔGbind^Obs (recombinant CYP 1A2 [3]): -5.31 kcal/mol

c1ccc2ccccc2c1 [Compound 27, Naphthalene]
Residual (ΔGbind^Obs—ΔGbind^Calc) (human CYP 1A2 [1]): -0.55 kcal/mol | IC50 (recombinant CYP 1A2 [2]; [6]): 700 µM | ΔGbind^Obs (recombinant CYP 1A2 [4]; training set): -4.73 kcal/mol

Cc1cc2ccccc2cn1 [Compound 49, 3-Methylisoquinoline]
IC50 (recombinant CYP 1A2 [2]; [6]): 21 µM

Cc1ccc2ccccc2c1 [Compound 30, 2-Methylnaphthalene]
Residual (ΔGbind^Obs—ΔGbind^Calc) (human CYP 1A2 [1]): -0.789 kcal/mol | IC50 (recombinant CYP 1A2 [2]): 120 µM | ΔGbind^Obs (recombinant CYP 1A2 [3]; human): -5.78 kcal/mol

Cc1ccc2cc(C)ccc2c1 [Compound 42, 2,6-Dimethylnaphthalene]
Residual (ΔGbind^Obs—ΔGbind^Calc) (human CYP 1A2 [1]): -0.454 kcal/mol | IC50 (recombinant CYP 1A2 [2]): 52 µM | ΔGbind^Obs (recombinant CYP 1A2 [3]; human): -6.29 kcal/mol

Cc1cc(C)c2ccccc2n1 [Compound 46, 2-4-Dimethylquinoline]
IC50 (recombinant CYP 1A2 [2]): 2.4 µM

CCc1ccc2ccccc2c1 [Compound 31, 2-Ethylnaphthalene]
Residual (ΔGbind^Obs–ΔG bind ^Calc), error in prediction (human CYP 1A2 [1]; test set): -0.789 kcal/mol | IC50 (recombinant CYP 1A2 [2]; [6]): 19 µM | ΔGbind^Obs (recombinant CYP 1A2 [3]; human): -6.91 kcal/mol

Fc1ccc2ccccc2c1 [Compound 32, 2-Fluoronaphthalene]
Residual (ΔGbind^Obs—ΔGbind^Calc) (human CYP 1A2 [1]; training set): -1.34 kcal/mol | IC50 (recombinant CYP 1A2 [2]; [6]): 49 µM | ΔGbind^Obs (recombinant CYP 1A2 [4]; training set): -6.33 kcal/mol

C#C[C@]1(O)CC[C@H]2[C@@H]3CCC4=Cc5oncc5C[C@]4(C)[C@H]3CC[C@@]21C [Compound 21, Danazol]
IC50 (CYP 1A2): 45.3 µM

O=C1Cc2ccccc2O1 [Compound 60, 2-Coumarone]
Residual (ΔGbind^Obs—ΔGbind^Calc) (human CYP 1A2 [1]; training set): -0.263 kcal/mol | IC50 (recombinant CYP 1A2 [2]; [6]): 260 µM | ΔGbind^Obs (recombinant CYP 1A2 [3]): -5.33 kcal/mol

Oc1cccc2ccccc12 [Compound 9, 1-naphthol]
Residual (ΔGbind^Obs–ΔG bind ^Calc), error in prediction (human CYP 1A2 [1]): -2.77 kcal/mol | IC50 (recombinant CYP 1A2 [2]; [7]): 3.2 ± 0.8 µM | IC50 (human CYP 1A2 [5]): 2 ± 0.7 µM | ΔΔG bind (human CYP 1A2 [5]): 0.287 kcal/mol | ΔG bind (inhouse) (human CYP 1A2 [5]): -8.25 ± 0.22 kcal/mol | ΔG bind (lit) (recombinant CYP 1A2 [3]; human): -7.96 ± 0.14 kcal/mol | ΔGbind^Obs (recombinant CYP 1A2 [3]; human): -7.96 kcal/mol

N[C@@H]1C[C@H]1c1ccccc1 (racemic) [Compound 15, Tranylcypromine]
IC50 (CYP 1A2): 10.4 µM
